According to patent publication EP3338554A1, “COMPOSITION AND METHOD FOR PREVENTING DEPOSIT FORMATION IN A DRIP IRRIGATION SYSTEM” (Evonik Degussa GmbH, priority 2016, dated 2018):

Experiment: Calcium sulfate precipitation test of NACE standard TM0374-2007 (scale inhibition efficiency)
Procedure: The efficiency for preventing the precipitation of calcium sulfate from aqueous solution was determined with the calcium sulfate precipitation test of NACE standard TM0374-2007. A composition prepared as in example 1 was added in amounts providing the concentrations of hydrogen peroxide and HEDP in the test brine given in table 4. The hydrogen peroxide and the HEDP used for making the composition were tested for comparison.

CC(O)(P(=O)(O)O)P(=O)(O)O [HEDP, 1-hydroxyethylidene-1,1-diphosphonic acid]
% inhibition in calcium sulfate precipitation test (HEDP 1 ppm alone): 39%
% inhibition in calcium sulfate precipitation test (HEDP 5 ppm alone): 77%
% inhibition in calcium sulfate precipitation test (HEDP 10 ppm alone): 74%

OO [Hydrogen peroxide, hydrogen peroxide]
% inhibition in calcium sulfate precipitation test (hydrogen peroxide 10 ppm alone): -8%
% inhibition in calcium sulfate precipitation test (hydrogen peroxide 50 ppm alone): -9%
% inhibition in calcium sulfate precipitation test (hydrogen peroxide 100 ppm alone): -9%
